Data: patent US20220008495A1, “APPLICATION OF PHLEGMYHEATCLEAR IN PREPARATION OF DRUG FOR TREATMENT OF ACUTE EXACERBATION OF CHRONIC OBSTRUCTIVE PULMONARY DISEASE” (SHANGHAI KAIBAO PHARMACEUTICAL CO., LTD., priority 2020, published 2022)
Marks after values point to notes of the source that are not given here.

Legend:
Format in all cases: in vivo, SD rats
[1] = test system: model of rats with acute exacerbation of chronic obstructive pulmonary disease; assay: Determination of serum CRP and SAA levels (ELISA); details: dexamethasone 0.23 mg/kg/d gavage 7 days, x±SD, n=9-12
Excerpt: The rats were allowed to acclimate to their surroundings for 7 days since purchased from the specific company. The rats were fed sterilized feed and allowed to free access to sterilized water. Operators regularly checked purification and water and electricity operating system to keep a quite environment. 14 rats were selected to fall into a blank control group, and the remaining rats were subjected to cigarette smoking and repeatedly infected with Klebsiella pneumoniae (KP) to establish chronic obstructive pulmonary disease (COPD) stable-phase model of rats. The method comprises the steps of: light a cigarette, making smoke concentration reach 3000±500 ppm, twice a day. The rats took a rest for at least 3 hours between the two times of being exposed to cigarette smoking, lasting for a total of 12 weeks. From 1 to 8 weeks, model of rats were instilled KP suspension (6×10^8 CFU/ml) 0.1 ml through the nasal cavity every 5 days. Instillation via the nasal cavity: a sterilized 1 ml syringe was used to draw 0.1 ml of KP suspension; the KP suspension was instilled into the rats when the rats were breathing in, and the instillation process was done in either the left and right nostrils in an alternating way. […]
The administration was started from the 2nd day of the 13th week. […] Changes of the pulmonary functions of the rats were detected by using an animal pulmonary function test system (PET). […]

[2] = test system: model of rats with acute exacerbation of chronic obstructive pulmonary disease; assay: Determination of IL-6, IL-10 in serum and TNF-α in alveolar lavage fluid (ELISA); details: dexamethasone 0.23 mg/kg/d gavage 7 days, n=10-12
Experimental: The administration was started from the 2nd day of the 13th week. The same volume of purified water (10 ml/kg/d) was administered intragastrically to rats in the blank control group and the model control group, and the other groups were received high dose of phlegmyheatclear, middle dose of phlegmyheatclear, low dose of phlegmyheatclear, and dexamethasone once a day. All the rats were fasted within 12 hours before sampling of blood, however, the rats were allowed to free access to water. […] Then the rats were anesthetized by intraperitoneal injection of 10% 1.0 ml/100 g urethane. Exposed tracheal intubation was performed. […]

[3] = test system: model of rats with acute exacerbation of chronic obstructive pulmonary disease; assay: Lung functions (animal pulmonary function test system); details: dexamethasone 0.23 mg/kg/d gavage 7 days; x±SD, n=6-12
Excerpt: (§1) The rats were allowed to acclimate to their surroundings for 7 days since purchased from the specific company. The rats were fed sterilized feed and allowed to free access to sterilized water. Operators regularly checked purification and water and electricity operating system to keep a quite environment. 14 rats were selected to fall into a blank control group, and the remaining rats were subjected to cigarette smoking and repeatedly infected with Klebsiella pneumoniae (KP) to establish chronic obstructive pulmonary disease (COPD) stable-phase model of rats. The method comprises the steps of: light a cigarette, making smoke concentration reach 3000±500 ppm, twice a day. The rats took a rest for at least 3 hours between the two times of being exposed to cigarette smoking, lasting for a total of 12 weeks. From 1 to 8 weeks, model of rats were instilled KP suspension (6×10^8 CFU/ml) 0.1 ml through the nasal cavity every 5 days. Instillation via the nasal cavity: a sterilized 1 ml syringe was used to draw 0.1 ml of KP suspension; the KP suspension was instilled into the rats when the rats were breathing in, and the instillation process was done in either the left and right nostrils in an alternating way. Lipopolysaccharide (LPS) 2 mg/kg was instilled into the trachea on the first day of the 13th week to establish model of rats with acute exacerbation of chronic obstructive pulmonary disease. After successful modeling, the model of rats were randomly divided into five groups, including a model control group, a high dose of phlegmyheatclear group, a middle dose of phlegmyheatclear group, a low dose of phlegmyheatclear group, and a dexamethasone group, with 12 rats in each group.
The administration was started from the 2nd day of the 13th week. The same volume of purified water (10 ml/kg/d) was administered intragastrically to rats in the blank control group and the model control group, and the other groups were received high dose of phlegmyheatclear, middle dose of phlegmyheatclear, low dose of phlegmyheatclear, and dexamethasone once a day. All the rats were fasted within 12 hours before sampling of blood, however, the rats were allowed to free access to water. Blood samples were collected from caudal vein for CBC. Then the rats were anesthetized by intraperitoneal injection of 10% 1.0 ml/100 g urethane. Exposed tracheal intubation was performed. Changes of the pulmonary functions of the rats were detected by using an animal pulmonary function test system (PET). Blood was collected from the abdominal aorta, and the collected blood was placed for 2 hours and centrifuged to obtain the blood serum to detect the levels of inflammatory factors IL-6, IL-10, CRP and SAA. The rat trachea and the whole lung were taken out by thoracotomy. The right main bronchus was ligated, and the left bronchoalveolar lavage fluid (BALF) was drawn out to detect the level of inflammatory factor TNF-α; the left lung was perfused with 4% paraformaldehyde for 1 hour, and the left lung was directly fixed in the 4% paraformaldehyde for pathological examination.
Before sampling, the rats were anesthetized by intraperitoneal injection of 10% 1.0 ml/100 g urethane. Exposed tracheal intubation was performed. Relevant parameters of each rat were detected by using an animal pulmonary function test system (PET), wherein the parameters include forced vital capacity (FVC), forced expiratory volume at 0.1 s (FEV0.1), forced expiratory volume at 0.3 s (FEV0.3), maximum expiratory flow rate (PEF), mid-maximum expiratory flow (MMEF), functional residual capacity (FRC), and other parameters, changes in lung function (x±SD) of rats in each group are shown in Table 3.

[4] = test system: model of rats with acute exacerbation of chronic obstructive pulmonary disease; assay: Complete blood count (peripheral blood inflammatory cells); details: dexamethasone 0.23 mg/kg/d gavage 7 days, x±SD
Excerpt: as §1
The administration was started from the 2nd day of the 13th week. The same volume of purified water (10 ml/kg/d) was administered intragastrically to rats in the blank control group and the model control group, and the other groups were received high dose of phlegmyheatclear, middle dose of phlegmyheatclear, low dose of phlegmyheatclear, and dexamethasone once a day. All the rats were fasted within 12 hours before sampling of blood, however, the rats were allowed to free access to water. Blood samples were collected from caudal vein for CBC. Then the rats were anesthetized by intraperitoneal injection of 10% 1.0 ml/100 g urethane. Exposed tracheal intubation was performed. Changes of the pulmonary functions of the rats were detected by using an animal pulmonary function test system (PET). […]
Blood samples were collected from caudal vein for CBC, the following items were counted: the white blood cell count (WBC), the ratio of neutrophils (NEU %), the percentage of lymphocytes (% LYMPH) and the percentage of mononuclear cells (% MONO).

[5] = test system: model of rats with acute exacerbation of chronic obstructive pulmonary disease; assay: Pathological examination of lung tissue (HE staining; MLI, MAN, bronchial wall thickness); details: dexamethasone 0.23 mg/kg/d gavage 7 days; x±SD, n=8
Experimental: The administration was started from the 2nd day of the 13th week. The same volume of purified water (10 ml/kg/d) was administered intragastrically to rats in the blank control group and the model control group, and the other groups were received high dose of phlegmyheatclear, middle dose of phlegmyheatclear, low dose of phlegmyheatclear, and dexamethasone once a day. All the rats were fasted within 12 hours before sampling of blood, however, the rats were allowed to free access to water. […] Then the rats were anesthetized by intraperitoneal injection of 10% 1.0 ml/100 g urethane. Exposed tracheal intubation was performed. […] The rat trachea and the whole lung were taken out by thoracotomy. […]

Compound: C[C@@H]1C[C@H]2[C@@H]3CCC4=CC(=O)C=C[C@]4(C)[C@@]3(F)[C@@H](O)C[C@]2(C)[C@@]1(O)C(=O)CO [Dexamethasone, dexamethasone]
- CRP [1]: 3420.23 ± 1254.10^bb ng/mL
- SAA [1]: 19.18 ± 6.18^bb μg/mL
- TNF-α ([2]; alveolar lavage fluid (BALF)): 325.52 ± 49.51^bb pg/mL
- IL-6 ([2]; serum): 507.54 ± 185.62^bb pg/mL
- IL-10 ([2]; serum): 40.65 ± 6.31 ^ pg/mL
- FEV0.1 (forced expiratory volume at 0.1 s) [3]: 5.31 ± 2.90 mL
- FEV0.3 (forced expiratory volume at 0.3 s) [3]: 15.06 ± 2.84 ^b mL
- FRC (functional residual capacity) [3]: 4.37 ± 1.48 mL
- FVC (forced vital capacity) [3]: 16.33 ± 2.01^bb mL
- MMEF (mid-maximum expiratory flow) [3]: 78.6 ± 29.1 mL/s
- PEF (maximum expiratory flow rate) [3]: 81.57 ± 29.43 mL/S
- LYM (percentage of lymphocytes) [4]: 82.15 ± 15.32%
- MONO (percentage of mononuclear cells) [4]: 0.61 ± 0.25^b %
- NEU (ratio of neutrophils) [4]: 16.57 ± 14.99%
- WBC (white blood cell count) [4]: 3.80 ± 1.53^bb *10^9/L
- MAN (mean alveolar numbers) [5]: 330.49 ± 77.29 ↑/mm^2
- MLI (mean linear intercept) [5]: 47.24 ± 5.78 μm
- Wt (bronchial wall thickness) [5]: 16.6 ± 4.01 µm
